In ChEMBL document CHEMBL1201862, “PubChem BioAssay data set” (2004):
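Results reflect a 48-hour exposure of cells in 96-well plates to compound at five concentrations. The concentration for 50% growth inhibition is given as GI50.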 Activity calls are given as the source filed them. Cut-off read from the data, not from the text of the source: active = GI50 up to about 1.1 µM and inactive = higher.

Columns and labels:
Experiment in all cases: NCI tumour cell line growth inhibition, 48 h
SK-MEL-28 = test system: SK-MEL-28
NCI-H522 = test system: NCI-H522
UACC-62 = test system: UACC-62
MDA-N = test system: MDA-N
DU-145 = test system: DU-145
MOLT-4 = test system: MOLT-4
Hs-578T = test system: Hs-578T
SF-295 = test system: SF-295
786-0 = test system: 786-0
EKVX = test system: EKVX
LOX IMVI = test system: LOX IMVI
SF-539 = test system: SF-539
UACC-257 = test system: UACC-257
COLO 205 = test system: COLO 205
HCT-116 = test system: HCT-116
IGROV-1 = test system: IGROV-1
HCC 2998 = test system: HCC 2998
BT-549 = test system: BT-549
RPMI-8226 = test system: RPMI-8226
SF-268 = test system: SF-268
CCRF-CEM = test system: CCRF-CEM
T47D = test system: T47D
U-251 = test system: U-251
MCF7 = test system: MCF7
PC-3 = test system: PC-3
HOP-62 = test system: HOP-62
NCI-H460 = test system: NCI-H460
NCI-H23 = test system: NCI-H23
ACHN = test system: ACHN
HL-60 = test system: HL-60
CAKI-1 = test system: CAKI-1
SK-MEL-2 = test system: SK-MEL-2
KM12 = test system: KM12
NCI/ADR-RES = test system: NCI/ADR-RES
OVCAR-8 = test system: OVCAR-8
Malme-3M = test system: Malme-3M
SK-MEL-5 = test system: SK-MEL-5
OVCAR-3 = test system: OVCAR-3
K562 = test system: K562
OVCAR-4 = test system: OVCAR-4
MDA-MB-435 = test system: MDA-MB-435
SW-620 = test system: SW-620
SK-OV-3 = test system: SK-OV-3
OVCAR-5 = test system: OVCAR-5
A498 = test system: A498
HCT-15 = test system: HCT-15
SR = test system: SR
HT-29 = test system: HT-29
TK-10 = test system: TK-10
SNB-75 = test system: SNB-75
A549 = test system: A549
MDA-MB-231 = test system: MDA-MB-231
SN12C = test system: SN12C
UO-31 = test system: UO-31
NCI-H226 = test system: NCI-H226
M14 = test system: M14
SNB-19 = test system: SNB-19
RXF 393 = test system: RXF 393
HOP-92 = test system: HOP-92

O=C(Nc1ccccc1)Oc1ccc(C(=S)Nc2ccc(Br)cc2)cc1
GI50 (SK-MEL-28): 19.4 µM (inactive)
GI50 (NCI-H522): 11 µM (inactive)
GI50 (UACC-62): 11 µM (inactive)
GI50 (MDA-N): 18.9 µM (inactive)
GI50 (DU-145): 31.5 µM (inactive)
GI50 (MOLT-4): 13.4 µM (inactive)
GI50 (Hs-578T): 22.9 µM (inactive)
GI50 (SF-295): 20.6 µM (inactive)
GI50 (786-0): 19.4 µM (inactive)
GI50 (EKVX): 5.13 µM (inactive)
GI50 (LOX IMVI): 11.9 µM (inactive)
GI50 (SF-539): 18.6 µM (inactive)
GI50 (UACC-257): 20.5 µM (inactive)
GI50 (COLO 205): 17.2 µM (inactive)
GI50 (HCT-116): 17.3 µM (inactive)
GI50 (IGROV-1): 6.43 µM (inactive)
GI50 (HCC 2998): 21.6 µM (inactive)
GI50 (BT-549): 12.8 µM (inactive)
GI50 (RPMI-8226): 36.6 µM (inactive)
GI50 (SF-268): 16.4 µM (inactive)
GI50 (CCRF-CEM): 8.57 µM (inactive)
GI50 (T47D): 22.2 µM (inactive)
GI50 (U-251): 19.5 µM (inactive)
GI50 (MCF7): 19.1 µM (inactive)
GI50 (PC-3): 22.6 µM (inactive)
GI50 (HOP-62): 28.6 µM (inactive)
GI50 (NCI-H460): 16.9 µM (inactive)
GI50 (NCI-H23): 17.5 µM (inactive)
GI50 (ACHN): 23.3 µM (inactive)
GI50 (HL-60): 8.13 µM (inactive)
GI50 (CAKI-1): 15.3 µM (inactive)
GI50 (SK-MEL-2): 18.3 µM (inactive)
GI50 (KM12): 12.8 µM (inactive)
GI50 (NCI/ADR-RES): 15.3 µM (inactive)
GI50 (OVCAR-8): 12.6 µM (inactive)
GI50 (Malme-3M): 19.2 µM (inactive)
GI50 (SK-MEL-5): 16 µM (inactive)
GI50 (OVCAR-3): 18.9 µM (inactive)
GI50 (K562): 21.5 µM (inactive)
GI50 (OVCAR-4): 14.3 µM (inactive)
GI50 (MDA-MB-435): 16.9 µM (inactive)
GI50 (SW-620): 24.5 µM (inactive)
GI50 (SK-OV-3): 34.5 µM (inactive)
GI50 (OVCAR-5): 16.6 µM (inactive)
GI50 (A498): 19.1 µM (inactive)
GI50 (HCT-15): 16.2 µM
GI50 (SR): 13.4 µM (inactive)
GI50 (HT-29): 16.8 µM (inactive)

CC(C)(C)OC[C@H](O)CC#N
GI50 (SK-MEL-28): > 100 µM (inactive)
GI50 (TK-10): > 100 µM (inactive)
GI50 (UACC-62): > 100 µM (inactive)
GI50 (SNB-75): > 100 µM (inactive)
GI50 (A549): > 100 µM (inactive)
GI50 (MDA-N): > 100 µM (inactive)
GI50 (DU-145): > 100 µM (inactive)
GI50 (MOLT-4): > 100 µM (inactive)
GI50 (Hs-578T): > 100 µM (inactive)
GI50 (SF-295): > 100 µM (inactive)
GI50 (786-0): > 100 µM (inactive)
GI50 (EKVX): > 100 µM (inactive)
GI50 (LOX IMVI): > 100 µM (inactive)
GI50 (SF-539): > 100 µM (inactive)
GI50 (UACC-257): > 100 µM (inactive)
GI50 (MDA-MB-231): > 100 µM (inactive)
GI50 (COLO 205): > 100 µM (inactive)
GI50 (HCT-116): > 100 µM (inactive)
GI50 (HCC 2998): > 100 µM (inactive)
GI50 (BT-549): > 100 µM (inactive)
GI50 (RPMI-8226): > 100 µM (inactive)
GI50 (SF-268): > 100 µM (inactive)
GI50 (CCRF-CEM): > 100 µM (inactive)
GI50 (T47D): > 100 µM (inactive)
GI50 (SN12C): > 100 µM (inactive)
GI50 (U-251): > 100 µM (inactive)
GI50 (MCF7): > 100 µM (inactive)
GI50 (PC-3): > 100 µM (inactive)
GI50 (HOP-62): > 100 µM (inactive)
GI50 (NCI-H460): > 100 µM (inactive)
GI50 (UO-31): > 100 µM (inactive)
GI50 (NCI-H23): > 100 µM (inactive)
GI50 (ACHN): > 100 µM (inactive)
GI50 (HL-60): > 100 µM (inactive)
GI50 (CAKI-1): > 100 µM (inactive)
GI50 (SK-MEL-2): > 100 µM (inactive)
GI50 (KM12): > 100 µM (inactive)
GI50 (OVCAR-8): > 100 µM (inactive)
GI50 (Malme-3M): > 100 µM (inactive)
GI50 (SK-MEL-5): > 100 µM (inactive)
GI50 (NCI-H226): > 100 µM (inactive)
GI50 (OVCAR-3): > 100 µM (inactive)
GI50 (K562): > 100 µM (inactive)
GI50 (M14): > 100 µM (inactive)
GI50 (OVCAR-4): > 100 µM (inactive)
GI50 (SNB-19): > 100 µM (inactive)
GI50 (MDA-MB-435): > 100 µM (inactive)
GI50 (SW-620): > 100 µM (inactive)
GI50 (SK-OV-3): > 100 µM (inactive)
GI50 (OVCAR-5): > 100 µM (inactive)
GI50 (A498): > 100 µM (inactive)
GI50 (HCT-15): > 100 µM
GI50 (SR): > 100 µM (inactive)
GI50 (HT-29): > 100 µM (inactive)
GI50 (RXF 393): > 100 µM (inactive)

O=C(Cn1c2c(c3ccccc31)CCCC2)N1CCCCC1
GI50 (HOP-92): > 100 µM (inactive)
GI50 (SK-MEL-28): > 100 µM (inactive)
GI50 (TK-10): > 100 µM (inactive)
GI50 (UACC-62): > 100 µM (inactive)
GI50 (A549): > 100 µM (inactive)
GI50 (MDA-N): > 100 µM (inactive)
GI50 (MOLT-4): > 100 µM (inactive)
GI50 (Hs-578T): > 100 µM (inactive)
GI50 (SF-295): > 100 µM (inactive)
GI50 (786-0): > 100 µM (inactive)
GI50 (EKVX): > 100 µM (inactive)
GI50 (LOX IMVI): > 100 µM (inactive)
GI50 (SF-539): 86.7 µM (inactive)
GI50 (UACC-257): > 100 µM (inactive)
GI50 (COLO 205): > 100 µM (inactive)
GI50 (HCT-116): > 100 µM (inactive)
GI50 (IGROV-1): > 100 µM (inactive)
GI50 (HCC 2998): > 100 µM (inactive)
GI50 (BT-549): > 100 µM (inactive)
GI50 (RPMI-8226): > 100 µM (inactive)
GI50 (SN12C): > 100 µM (inactive)
GI50 (MCF7): > 100 µM (inactive)
GI50 (PC-3): > 100 µM (inactive)
GI50 (HOP-62): > 100 µM (inactive)
GI50 (NCI-H460): > 100 µM (inactive)
GI50 (UO-31): > 100 µM (inactive)
GI50 (NCI-H23): > 100 µM (inactive)
GI50 (ACHN): > 100 µM (inactive)
GI50 (HL-60): > 100 µM (inactive)
GI50 (CAKI-1): > 100 µM (inactive)
GI50 (SK-MEL-2): > 100 µM (inactive)
GI50 (NCI/ADR-RES): > 100 µM (inactive)
GI50 (OVCAR-8): > 100 µM (inactive)
GI50 (Malme-3M): > 100 µM (inactive)
GI50 (SK-MEL-5): > 100 µM (inactive)
GI50 (OVCAR-3): > 100 µM (inactive)
GI50 (M14): > 100 µM (inactive)
GI50 (OVCAR-4): > 100 µM (inactive)
GI50 (SNB-19): > 100 µM (inactive)
GI50 (MDA-MB-435): > 100 µM (inactive)
GI50 (SW-620): > 100 µM (inactive)
GI50 (SK-OV-3): > 100 µM (inactive)
GI50 (OVCAR-5): > 100 µM (inactive)
GI50 (HCT-15): > 100 µM
GI50 (SR): > 100 µM (inactive)
GI50 (HT-29): > 100 µM (inactive)
